The text below walks through data of patent US10544130B2, “Metallo-beta-lactamase inhibitors” (priority 2015, dated 2020).

The series concerns Pseudomonas aeruginosa PAO1 MB9798 (efflux+, IMP-1). Particulars: ratio MITC95 PA 9798/MITC95 PA 9799; imipenem at 2 μg/mL. An outline of the steps:
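Isogenic PAO1 pair (efflux+ MB9798, efflux− MB9799, both IMP-1) tested by microbroth MIC with fixed imipenem and/or ceftazidime, usually at CLSI breakpoint, plus fixed class A/C inhibitor against AmpC. MBL inhibitor titrated; concentration restoring susceptibility recorded and fold difference between strains taken as efflux extent.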
Consider `NCCNS(=O)(=O)c1ccc(-c2cccc3[nH]c(N)nc23)c(-c2nn[nH]n2)c1S(N)(=O)=O` [Example 12, 4-(2-amino-1H-benzo[d]imidazol-4-yl)-N^1-(2-aminoethyl)-3-(2H-tetrazol-5-yl)benzene-1,2-disulfonamide], for which the Efflux ratio was 0.75.

With `Cl.Cn1c(N)nc2c(-c3ccc(S(=O)(=O)NCCN)c(S(N)(=O)=O)c3-c3nn[nH]n3)cccc21` [Example 10, 4-(2-amino-1-methyl-1H-benzo[d]imidazol-4-yl)-N1-(2-aminoethyl)-3-(2H-tetrazol-5-yl)benzene-1,2-disulfonamide hydrochloride], the Efflux ratio was found to be 1.00.

Turning to `NS(=O)(=O)c1c(S(=O)(=O)N[C@H]2CCNC2)ccc(-c2cccc3[nH]cnc23)c1-c1nn[nH]n1` [Example 197, 4-(1H-benzo[d]imidazol-4-yl)-N^1—((S)-pyrrolidin-3-yl)-3-(2H-tetrazol-5-yl)benzene-1,2-disulfonamide], the Efflux ratio turned out to be 1.00.

Take `NCC(CN)NS(=O)(=O)c1ccc(-c2cccc(C3N=NC(N)=N3)c2)c(-c2nn[nH]n2)c1S(N)(=O)=O` (stereo not drawn) [Example 229, 3′-(5-amino-3H-1,2,4-triazol-3-yl)-N4-(1,3-diaminopropan-2-yl)-2-(2H-tetrazol-5-yl)-[1,1′-biphenyl]-3,4-disulfonamide]: the Efflux ratio was determined as 0.50.

For `COC(=O)[C@H]1C[C@@H](NS(=O)(=O)c2ccc(-c3cccc4sc(N)nc34)c(-c3nnn[nH]3)c2S(N)(=O)=O)CN1` [Example 128, Methyl(2R,4R)-4-((4-(2-aminobenzo[d]thiazol-4-yl)-2-sulfamoyl-3-(1H-tetrazol-5-yl)phenyl)sulfonamido)pyrrolidine-2-carboxylate], the Efflux ratio is 1.00.

On to `NC[C@@H](O)CNS(=O)(=O)c1ccc(-c2ccc(N)nc2)c(-c2nn[nH]n2)c1S(N)(=O)=O` [Example 303, (R)-N1-(3-amino-2-hydroxypropyl)-4-(6-aminopyridin-3-yl)-3-(2H-tetrazol-5-yl)benzene-1,2-disulfonamide], for which the Efflux ratio is 1.00.

Consider `Nc1nc2c(-c3ccc(S(=O)(=O)N4CCC(N)(CO)C4)c(S(N)(=O)=O)c3-c3nnn[nH]3)cccc2s1` (stereo not drawn) [Example 55, 3-(2-amino-1,3-benzothiazol-4-yl)-6-{[3-amino-3-(hydroxymethyl)pyrrolidin-1-yl]sulfonyl}-2-(1H-tetrazol-5-yl)benzenesulfonamide], for which the Efflux ratio is on record as 1.00.

As to `Nc1nc2c(-c3ccc(S(=O)(=O)NC4C5CNCC54)c(S(N)(=O)=O)c3-c3nnn[nH]3)cccc2s1.O=C(O)C(F)(F)F` (stereo not drawn) [Example 111, 6-(4-(2-aminobenzo[d]thiazol-4-yl)-2-sulfamoyl-3-(1H-tetrazol-5-yl)phenylsulfonamido)-3-azabicyclo[3.1.0]hexan-3-ium 2,2,2-trifluoroacetate], the Efflux ratio came out at 0.50.

Consider `Cn1cnc(CNS(=O)(=O)c2ccc(-c3cccc4sc(N)nc34)c(-c3nnn[nH]3)c2S(N)(=O)=O)n1` [Example 20, 4-(2-amino-1,3-benzothiazol-4-yl)-N^1-[(1-methyl-1H-1,2,4-triazol-3-yl)methyl]-3-(1H-tetrazol-5-yl)benzene-1,2-disulfonamide], for which the Efflux ratio was found to be 1.00.

For the compound `CNCCCN(C)S(=O)(=O)c1ccc(-c2cccc3sc(N)nc23)c(-c2nnn[nH]2)c1S(N)(=O)=O.O=C(O)C(F)(F)F` [Example 93, 3-(4-(2-aminobenzo[d]thiazol-4-yl)-N-methyl-2-sulfamoyl-3-(1H-tetrazol-5-yl)phenylsulfonamido)-N-methylpropan-1-aminium 2,2,2-trifluoroacetate], the Efflux ratio was 1.00.

In the case of `Nc1nc2c(-c3ccc(S(=O)(=O)NCC(=O)O)c(S(N)(=O)=O)c3-c3nn[nH]n3)cccc2s1` [Example 153, ((4-(2-aminobenzo[d]thiazol-4-yl)-2-sulfamoyl-3-(2H-tetrazol-5-yl)phenyl)sulfonyl)glycine], the Efflux ratio was 1.00.

Consider `NCCNC(=O)c1cccc(-c2ccc(S(=O)(=O)NCCN)c(S(N)(=O)=O)c2-c2nn[nH]n2)c1N` [Example 204, 2-amino-N-(2-aminoethyl)-4′-(N-(2-aminoethyl)sulfamoyl)-5′-sulfamoyl-6′-(2H-tetrazol-5-yl)biphenyl-3-carboxamide], for which the Efflux ratio was found to be 1.00.

As for `COCCNCCNS(=O)(=O)c1ccc(-c2cccc3sc(N)nc23)c(-c2nnn[nH]2)c1S(N)(=O)=O` [Example 85, 4-(2-aminobenzo[d]thiazol-4-yl)-N1-(2-((2-methoxyethyl)amino)ethyl)-3-(1H-tetrazol-5-yl)benzene-1,2-disulfonamide], the Efflux ratio is on record as 1.00.

As for `CN1CCC(NS(=O)(=O)c2ccc(-c3cccc4sc(N)nc34)c(-c3nnn[nH]3)c2S(N)(=O)=O)C1` (stereo not drawn) [Example 53, 4-(2-amino-1,3-benzothiazol-4-yl)-N1-(1-methylpyrrolidin-3-yl)-3-(1H-tetrazol-5-yl)benzene-1,2-disulfonamide], the Efflux ratio was 1.00.

On to `Nc1nc2c(-c3ccc(S(=O)(=O)N[C@H]4CNC[C@H]4N)c(S(N)(=O)=O)c3-c3nn[nH]n3)cccc2[nH]1` [Example 241, 4-(2-amino-1H-benzo[d]imidazol-4-yl)-N^1-((3S,4R)-4-aminopyrrolidin-3-yl)-3-(2H-tetrazol-5-yl)benzene-1,2-disulfonamide], for which the Efflux ratio turned out to be 0.83.

`Nc1nc2c(-c3ccc(S(=O)(=O)NCC4COCCN4)c(S(N)(=O)=O)c3-c3nn[nH]n3)cccc2[nH]1` (stereo not drawn) [Example 206, 4-(2-amino-1H-benzo[d]imidazol-4-yl)-N1-(morpholin-3-ylmethyl)-3-(2H-tetrazol-5-yl)benzene-1,2-disulfonamide]: the Efflux ratio is 2.00.

For the compound `Nc1ccc(-c2ccc(S(=O)(=O)N[C@@H]3CCNC3)c(S(N)(=O)=O)c2-c2nn[nH]n2)cn1` [Example 194, (R)-4-(6-aminopyridin-3-yl)-N^1-(pyrrolidin-3-yl)-3-(2H-tetrazol-5-yl)benzene-1,2-disulfonamide], the Efflux ratio is 0.80.

`C[C@H](N)CC(=O)NS(=O)(=O)c1ccc(-c2cccc3[nH]c(N)nc23)c(-c2nn[nH]n2)c1S(N)(=O)=O` [Example 208, (S)-3-amino-N-((4-(2-amino-1H-benzo[d]imidazol-4-yl)-2-sulfamoyl-3-(2H-tetrazol-5-yl)phenyl)sulfonyl)butanamide]: the Efflux ratio is 1.00.

For the compound `NCc1nc2c(-c3ccc(S(=O)(=O)NC[C@H](O)CN)c(S(N)(=O)=O)c3-c3nn[nH]n3)cccc2s1` [Example 300, (R)—N1-(3-amino-2-hydroxypropyl)-4-(2-(aminomethyl)benzo[d]thiazol-4-yl)-3-(2H-tetrazol-5-yl)benzene-1,2-disulfonamide], the Efflux ratio is listed as 1.00.

As to `CC(C)(N)CNS(=O)(=O)c1ccc(-c2cccc3sc(N)nc23)c(-c2nnn[nH]2)c1S(N)(=O)=O` [Example 87, N^1-(2-amino-2-methylpropyl)-4-(2-aminobenzo[d]thiazol-4-yl)-3-(1H-tetrazol-5-yl)benzene-1,2-disulfonamide], the Efflux ratio stood at 0.50.

Consider `CC(N)CNS(=O)(=O)c1ccc(-c2cccc3sc(N)nc23)c(-c2nnn[nH]2)c1S(N)(=O)=O.O=C(O)C(F)(F)F` (stereo not drawn) [Example 109, l-(4-(2-aminobenzo[d]thiazol-4-yl)-2-sulfamoyl-3-(1H-tetrazol-5-yl)phenylsulfonamido) propan-2-aminium 2,2,2-trifluoroacetate], for which the Efflux ratio is recorded as 0.50.
